Test results taken from US11058654B2, “Compositions and methods for the treatment of hemoglobinopathies and thalassemias” (AXCELLA HEALTH INC., priority 2018, dated 2021).

Tested on: RBCs of healthy whole blood
Assay: RBC deformability (LORRCA elongation index), ex vivo TBHP oxidation of healthy whole blood
Format: cell-based, human
Settings: for EI over vehicle control, ½ EImax and EImax: healthy donor 2, single amino acid treatments, in words
Description: Whole blood from healthy African American and/or Hispanic donors was obtained from Research Blood Components, LLC based on the following donor selection criteria: Adult age (between 18 and 50 years), normal BMI (<30), and absence of other confounding clinical conditions. Whole blood from SCD donors were obtained from BioIVT based on the following donor selection criteria: Patients with genotypes HbSS, HbSC, HbS/β^0 and at least 1-2 months gap since last blood transfusion. Whole blood was shipped on ice on the same day as blood draw. Upon receipt, the blood sample was aliquoted and stored in the refrigerator until used for studies.
RBC deformability measurements were conducted with the Laser Optical Rotational Red Cell Analyzer (LORRCA) from RR Mechatronics in a temperature-controlled environment (37° C.). Briefly, an even layer of RBCs suspended in polyvinylpyrrolidone (PVP) is subjected to shear stress gradient (0.3 to 30 Pa) through two concentric cylinders and the resulting changes in RBC shape or deformability are measured by a laser beam diffraction pattern. The captured images of RBC shape in response to increasing shear stress are then analyzed by the LORRCA program to calculate Elongation Index (EI).
Healthy RBCs have higher deformability≥0.5 EI and SCD RBCs have lower deformability or EI values as studied by LORRCA ektacytometry in the field. […] The induced hemolysis model in this disclosure involves use of tert-butyl hydroperoxide (TBHP) to lower EI of RBCs.
The ex vivo hemolysis study disclosed here involves overnight treatment of whole blood with vehicle as a control and specific amino acids followed by rapid oxidation (5 min) with TBHP. Method for oxidation of whole blood with tert-butyl hydroperoxide has been used in prior literature (Diederich L, et al, Front Physiol. 2018 May 11; 9:332). RBC deformability or shape changes are then measured with LORRCA ektacytometry.
Whole blood aliquots stored in the fridge were brought up to room temperature while gently shaking on a rocker at low speed for an hour to ensure gradual and uniform suspension of red blood cells prior to deformability measurements. Vehicle control used in the study was 1× Dulbecco's […]) and amino acids disclosed herein were added (at either final […] or 2.5 mM concentration as indicated) to corresponding vehicle and amino acid treatment conditions. The samples were then incubated overnight at 37° C. Next day, 25 μL of whole blood was taken from each treatment condition and added to 5 mL Elon ISO viscous solution from RR Mechatronics. The sample was inverted 15-20 times to ensure proper mixing of the treated RBCs with the Elon ISO solution followed by loading the sample on LORRCA and capturing RBC deformability or shape measurements over the applied shear gradient. The remaining whole blood treatments were returned to incubator (37° C.) until deformability measurements were completed for all treatments. To the remaining whole blood treatment samples, TBHP solution (5.0-6.0 M in Decane, Sigma) was added at 2.5 mM final concentration from a 100 mM freshly prepared stock and incubated for further 5 min at 37° C. 25 μL of this TBHP-treated sample was immediately removed at the end of the 5 min incubation and added to the Elon ISO solution for RBC deformability measurement after oxidation. Included in the Tables 13-15 are EI measurements at ½ EImax shear stress 1.69 Pa and EImax shear stress 30 Pa from these studies and FIG. 1 captures EI measurements for all shear stress points for the indicated treatment conditions.

For `N=C(N)NCCC[C@H](N)C(=O)O` [Arginine], the “EI over vehicle control, ½ EImax and EImax” value (“EI over vehicle control” for short) was “higher than the vehicle”.

For `NC(=O)CC[C@H](N)C(=O)O` [Glutamine], the “effectiveness among all treatment groups (EI and fold change relative to vehicle)” value (healthy donor 2, in words) was “least effective” and the “EI over vehicle control” value was “higher than the vehicle”.

In the case of `CC(=O)N[C@@H](CS)C(=O)O` [N-Acetyl Cysteine, N-acetylcysteine], the “EI over vehicle control” value is reported as “higher than the vehicle”.
